The values that follow come from publication PMC5388927 (Virology, 2008).

The structures appear in SMILES notation.

The test system of data set [1] is WNV VLP. Type of data set: cell-based, West Nile virus. The settings on record: 1.5 μM.
Data set [2] deals with DENV-1 VLP. Type of data set: cell-based, dengue virus (DENV-1). As to conditions: 1.5 μM.
Data set [3] has as its system WEEV (strain Cova 746). The data set is classed as cell-based, Western equine encephalitis virus.
In data set [4] the test system is VSV (New Jersey serotype). The data set is classed as cell-based, vesicular stomatitis virus.
Data set [5] relates to poliovirus. As to conditions: cited from earlier work.
The subject of data set [6] is SARS-CoV. The settings on record: cited from earlier work.
In data set [7] the test system is herpes simplex virus (type 1). As to conditions: cited from earlier work.
For data set [8], the system named is vaccinia virus. The settings on record: cited from earlier work.
The subject of data set [9] is HIV-1. As to conditions: cited from earlier work.
Data set [10] is described as follows: in vitro. As to conditions: African green monkey.

The term viability denotes a read-out of living cells in per cent, often relative to untreated cells. For the molecule `O[C@H]1[C@H]2c3cc4c(cc3CN3CCC(=C[C@@H]1O)[C@H]23)OCO4` [Lycorine], the “reduction of luciferase signals” value is on record as 1400 fold in [1] and 1200 fold in data set [2]. Further, the “suppression of viral titer” value in data set [3] and in [4] was “suppressed titers of neither WEEV nor VSV” throughout. The antiviral activity entry in [5] is given as “inhibit”; in [6] it was “inhibit”; in data set [7], “inhibit”; in data set [8], “inhibit”; in data set [9], “does not inhibit”. In addition, in data set [5], the “suppression of viral translation” value is on record as around 90%. Also, the viability at 1.5 µM in data set [10] was above 90%.
